Test results from patent US20090048214A1, “Methods for Treating Renal Tumors Using 2, 4-Pyrimidinediamine Drug and Prodrug Compounds” (RIGEL PHARMACEUTICALS, INC, priority 2006, published 2009).

Legend:
CAKI-1 = conditions: CAKI-1, Renal Cancer; besylate salt
RXF 393 = assay: cells; conditions: Homo sapiens
ACHN = assay: cells; conditions: Homo sapiens
SF-539 = assay: cells; conditions: Homo sapiens
SR [1] = assay: cells; conditions: Homo sapiens
MOLT-4 = assay: cells; conditions: Homo sapiens
MDA-MB-231/ATCC = conditions: Breast Cancer, besylate salt
NCI-H522 = assay: cells; conditions: Homo sapiens, NCI-H522, read-out: LC50
MDA-MB-435 = assay: cells; conditions: Homo sapiens
DU-145 = conditions: DU-145, Prostate Cancer; besylate salt
CCRF-CEM = assay: cells; conditions: Homo sapiens, read-out: LC50
SNB-75 = assay: cells; conditions: Homo sapiens
KM12 = assay: cells; conditions: Homo sapiens
UO-31 = conditions: UO-31, Renal Cancer; besylate salt
NCI-H23 = assay: cells; conditions: Homo sapiens, NCI-H23, read-out: LC50
M14 = assay: cells; conditions: Homo sapiens
UACC-257 = assay: cells; conditions: Homo sapiens
NCI/ADR-RES = assay: cells; conditions: Homo sapiens
OVCAR-8 = conditions: OVCAR-8, Ovarian Cancer; besylate salt
SF-295 [2] = assay: cells; conditions: Homo sapiens, SF-295, read-out: LC50
SK-MEL-2 [3] = conditions: SK-MEL-2, Melanoma; besylate salt
HT29 [4] = assay: cells; conditions: Homo sapiens
HOP-92 = assay: cells; conditions: Homo sapiens
SN12C = conditions: Renal Cancer, besylate salt
786-0 = conditions: 786-0, Renal Cancer; besylate salt
HL-60(TB) = conditions: Leukemia, besylate salt
IGROV1 = assay: cells; conditions: Homo sapiens
K-562 [5] = conditions: K-562, Leukemia; besylate salt
U251 = conditions: U251, CNS Cancer; besylate salt
SK-MEL-2 [6] = assay: cells; conditions: Homo sapiens
HCT-15 = assay: cells; conditions: Homo sapiens, HCT-15, read-out: LC50
K-562 [7] = assay: cells; conditions: Homo sapiens
OVCAR-3 = conditions: OVCAR-3, Ovarian Cancer; besylate salt
HT29 [8] = conditions: HT29, Colon Cancer; besylate salt
SNB-19 = conditions: SNB-19, CNS Cancer; besylate salt
SR [9] = conditions: Leukemia, besylate salt
SF-295 [10] = conditions: SF-295, CNS Cancer; besylate salt
HOP-62 = conditions: HOP-62, Non-Small Cell Lung Cancer; besylate salt
TK-10 = assay: cells; conditions: Homo sapiens, TK-10, read-out: LC50

## COc1cc(Nc2ncc(F)c(Nc3ccc4c(n3)NC(=O)C(C)(C)O4)n2)cc(OC)c1OC [Compound 1]
CAKI-1
  TGI: 2.44E−6
RXF 393; RXF 393, read-out: G150
  IC50: 0.196 µM
RXF 393; RXF 393, read-out: LC50
  CC50: > 100 µM
ACHN; read-out: G150
  IC50: 1.24 µM
ACHN; read-out: LC50
  CC50: > 100 µM
SF-539; SF-539, read-out: G150
  IC50: 0.605 µM
SF-539; SF-539, read-out: LC50
  CC50: > 100 µM
SR [1]; read-out: G150
  IC50: 3.56 µM
SR [1]; read-out: LC50
  CC50: > 100 µM
MOLT-4; MOLT-4, read-out: G150
  IC50: 4.82 µM
MOLT-4; MOLT-4, read-out: LC50
  CC50: > 100 µM
MDA-MB-231/ATCC
  TGI: >1.00E−4
NCI-H522
  CC50: > 100 µM
MDA-MB-435; MDA-MB-435, read-out: G150
  IC50: 3.62 µM
MDA-MB-435; MDA-MB-435, read-out: LC50
  CC50: > 100 µM
DU-145
  TGI: >1.00E−4
CCRF-CEM
  CC50: > 100 µM
SNB-75; SNB-75, read-out: G150
  IC50: 0.871 µM
SNB-75; SNB-75, read-out: LC50
  CC50: > 100 µM
KM12; KM12, read-out: G150
  IC50: 0.355 µM
KM12; KM12, read-out: LC50
  CC50: > 100 µM
UO-31
  TGI: >1.00E−4
NCI-H23
  CC50: > 100 µM
M14; M14, read-out: G150
  IC50: > 100 µM
M14; M14, read-out: LC50
  CC50: > 100 µM
UACC-257; UACC-257, read-out: G150
  IC50: > 100 µM
UACC-257; UACC-257, read-out: LC50
  CC50: > 100 µM
NCI/ADR-RES; read-out: G150
  IC50: > 100 µM
NCI/ADR-RES; read-out: LC50
  CC50: > 100 µM
OVCAR-8
  TGI: >1.00E−4
SF-295 [2]
  CC50: > 100 µM
SK-MEL-2 [3]
  TGI: >1.00E−4
HT29 [4]; HT-29, read-out: G150
  IC50: 2.19 µM
HT29 [4]; HT-29, read-out: LC50
  CC50: > 100 µM
HOP-92; HOP-92, read-out: G150
  IC50: 0.41 µM
HOP-92; HOP-92, read-out: LC50
  CC50: > 100 µM
SN12C
  TGI: >1.00E−4
786-0
  TGI: >1.00E−4
HL-60(TB)
  TGI: >1.00E−4
IGROV1; IGROV-1, read-out: G150
  IC50: 0.796 µM
IGROV1; IGROV-1, read-out: LC50
  CC50: > 100 µM
K-562 [5]
  TGI: >1.00E−4
U251
  TGI: >1.00E−4
SK-MEL-2 [6]; SK-MEL-2, read-out: G150
  IC50: > 100 µM
SK-MEL-2 [6]; SK-MEL-2, read-out: LC50
  CC50: > 100 µM
HCT-15
  CC50: > 100 µM
K-562 [7]; K562, read-out: G150
  IC50: > 100 µM
K-562 [7]; K562, read-out: LC50
  CC50: > 100 µM
OVCAR-3
  TGI: >1.00E−4
HT29 [8]
  TGI: >1.00E−4
SNB-19
  TGI: >1.00E−4
SR [9]
  TGI: >1.00E−4
SF-295 [10]
  TGI: >1.00E−4
HOP-62
  TGI: >1.00E−4
TK-10
  CC50: > 100 µM
